Experimental data: US9765039B2, “Biaryl derivatives as bromodomain inhibitors” (Zenith Epigenetics Ltd., priority 2012, dated 2017)

Tests used:
c-myc = assay: Inhibition of c-myc expression in cancer cell lines (mRNA, real-time PCR); format: cell-based; parameters: key: Active: Compounds with an IC50 value less than 30 μM were deemed to be active; conditions: Human AML MV4-11 cells, 3 hours
Outline: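 MV4-11 cells (2.5×10^4) exposed to compound or 0.1% DMSO for 3 h at 37° C, then lysed for mRNA isolation. c-myc and cyclophilin cDNAs co-amplified by duplex RT real-time PCR. IC50 from dose-response curve.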

hApoA-1 mRNA = assay: Up-regulation of hApoA-1 mRNA transcription in Huh7 cells; format: cell-based, human; parameters: key: Active: Compounds with an EC170 value less than 30 μM are deemed to be active.; Not Active: Compounds with an EC170 value less than 30 μM are deemed to be active; conditions: 48 hrs treatment, ApoA-I mRNA
Protocol: In this example, ApoA-I mRNA in tissue culture cells was quantitated to measure the transcriptional up-regulation of ApoA-I when treated with a compound of the present disclosure.
Huh7 cells ([…] per well) were plated in a 96-well plate using 100 μL DMEM per well, (Gibco DMEM supplemented with penicillin/streptomycin and 10% FBS), 24 h before the addition of the compound of interest. After 48 hrs treatment, the spent media was removed from the Huh-7 cells and placed on ice (for immediate use) or at −80° C. (for future use) with the “LDH cytotoxicity assay Kit II” from Abcam. The cells remaining in the plate were rinsed with 100 μL PBS.
Then 85 μL of cell lysis solution was added to each well and incubated for 5-10 minutes at room temperature, to allow for complete cell lysis and detachment. mRNA was then prepared using the “mRNA Catcher PLUS plate” from Life Technologies, according to the protocol supplied. After the last wash, as much wash buffer as possible was aspirated without allowing the wells to dry. Elution Buffer (E3, 80 μL) was then added to each well. mRNA was then eluted by incubating the mRNA Catcher PLUS plate with Elution Buffer for 5 minutes at 68° C., and then 1 minute at 4° C. Catcher plates with mRNA eluted were kept on ice for use or stored at −80° C.
The eluted mRNA isolated was then used in a one-step real-time PCR reaction, using components of the Ultra Sense Kit together with Life Technologies primer-probe mixes. Real-time PCR data was analyzed, using the Ct values, to determine the fold induction of each unknown sample, relative to the control (that is, relative to the control for each independent DMSO concentration).
Compounds with an EC170 value less than 30 μM are deemed to be active.

Brd4 bromodomain 1 = target: T1, Brd4 bromodomain 1 (Homo sapiens, UniProt O60885); assay: Inhibition of tetra-acetylated histone H4 binding to BET bromodomains (TR-FRET); parameters: key: Active: Compounds with an IC50 value less than 30 μM were deemed to be active.; Not Active: Compounds with an IC50 value less than 30 μM were deemed to be active; conditions: first bromodomain of Brd4, tetra-acetylated histone H4 peptide
T1 construct: made in house; host or cells: E. coli BL21(DE3)
Outline: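 TR-FRET with N-terminally His-tagged bromodomains (200 nM, E. coli-expressed, Ni affinity and SEC-purified) and biotinylated tetra-acetylated histone H4 peptide (25–50 nM), detected with Eu-cryptate streptavidin and XL665 anti-His antibody. Buffer 30 mM HEPES pH 7.4, 320 mM KF, 0.08% BSA, 0.2% DMSO; 2 h RT. IC50 from decrease in 665/620 nm ratio.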

Human AML MV-4-11 cells = assay: Inhibition of cell proliferation in cancer cell lines (CellTiter Aqueous One); format: cell-based; parameters: key: Active: Compounds with an IC50 value less than 30 μM were deemed to be active.; Not Active: Compounds with an IC50 value less than 30 μM were deemed to be active; conditions: 72 hours
Outline: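 Exponentially growing MV-4-11 cells were treated immediately with two-fold compound dilutions from 30 µM to 0.2 µM in triplicate for 72 h at 37 °C. Viability was read by MTS (CellTiter Aqueous One) absorbance at 490 nm after 3-4 h; % proliferation vs DMSO gave IC50.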

hIL-6 mRNA = assay: Inhibition of hIL-6 mRNA transcription in LPS-stimulated U937 macrophages; format: cell-based, human; parameters: key: Active: Compounds with an IC50 value less than 30 μM are deemed to be active; conditions: U937 differentiated into macrophages, 1 h pretreatment, lipopolysaccharide 3 h
Outline: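 U937 cells differentiated 3 days with 60 ng/mL PMA, pretreated 1 h with compound, then stimulated with […] E. coli LPS for 3 h at 37° C. hIL-6 mRNA quantified by one-step real-time RT-PCR, Ct normalised to internal control and expressed as fold induction relative to control.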

| SMILES | c-myc activity (IC50 < 30 μM) (c-myc) | ApoA-1 Activity (EC170 < 30 μM) (hApoA-1 mRNA) | FRET activity (IC50 < 30 μM) (Brd4 bromodomain 1) | cell proliferation activity (IC50 < 30 μM) (Human AML MV-4-11 cells) | IL-6 activity (IC50 < 30 μM) (hIL-6 mRNA) | melting point [°C] |
| --- | --- | --- | --- | --- | --- | --- |
| COc1cc(OC)c2c(=O)[nH]c(-c3ccc(OCCNC(C)C)c(-c4ccc(C(=O)N(C)C)cc4C)n3)nc2c1 [Example 4, 4-(6-(5,7-dimethoxy-4-oxo-3,4-dihydroquinazolin-2-yl)-3-(2-(isopropylamino)ethoxy)pyridin-2-yl)-N,N,3-trimethylbenzamide] | Active | Active | Active | Active | Active | – |
| COc1cc(OC)c2c(=O)[nH]c(-c3ccc(OCCO)c(-c4ccc(C(=O)N(C)C)cc4Cl)n3)nc2c1 [Example 5, 3-Chloro-4-(6-(5,7-dimethoxy-4-oxo-3,4-dihydroquinazolin-2-yl)-3-(2-hydroxyethoxy)pyridin-2-yl)-N,N-dimethylbenzamide] | Active | Active | Active | Active | Active | – |
| COc1cc(OC)c2c(=O)[nH]c(-c3ccc(OCCNC(C)C)c(-c4ccc(C(=O)N(C)C)cc4Cl)n3)nc2c1 [Example 6, 3-Chloro-4-(6-(5,7-dimethoxy-4-oxo-3,4-dihydroquinazolin-2-yl)-3-(2-(isopropylamino)ethoxy)pyridin-2-yl)-N,N-dimethylbenzamide] | Active | Active | Active | Active | Active | – |
| COc1cc(F)cc2nc(-c3ccc(OC4CN(C)C4)c(-c4ccc([S+](C)[O-])cc4)c3)[nH]c(=O)c12 (stereo not drawn) [Example 15, 7-Fluoro-5-methoxy-2-(6-((1-methylazetidin-3-yl)oxy)-4′-(methylsulfinyl)-[1,1′-biphenyl]-3-yl)quinazolin-4(3H)-one] | Active | Active | Active | Not Active | Active | – |
| COc1cc(OC)c2c(=O)[nH]c(-c3ccc(OCCNC(C)C)c(-c4ccc([S+](C)[O-])cc4)c3)nc2c1 (stereo not drawn) [Example 17, 2-(6-(2-(Isopropylamino)ethoxy)-4′-(methylsulfinyl)biphenyl-3-yl)-5,7-dimethoxyquinazolin-4(3H)-one] | Active | Active | Active | Active | Active | – |
| COc1cc(OC)c2c(=O)[nH]c(-c3ccc(OC4CNC4)c(-c4ccc(C#N)cc4)c3)nc2c1 [Example 18, 2′-(Azetidin-3-yloxy)-5′-(5,7-dimethoxy-4-oxo-3,4-dihydroquinazolin-2-yl)-[1,1′-biphenyl]-4-carbonitrile] | Active | Active | Active | Not Active | Active | – |
| COc1cc(OC)c2c(=O)[nH]c(-c3ccc(OC4CN(C)C4)c(-c4ccc(C#N)cc4)c3)nc2c1 [Example 19, 5′-(5,7-Dimethoxy-4-oxo-3,4-dihydroquinazolin-2-yl)-2′-((1-methylazetidin-3-yl)oxy)-[1,1′-biphenyl]-4-carbonitrile] | Active | Active | Active | Not Active | Active | – |
| COc1cc(OC)c2c(=O)[nH]c(-c3cccc(-c4ccc(C(=O)N(C)C)cc4)n3)nc2c1 [Example 20, 4-(6-(5,7-Dimethoxy-4-oxo-3,4-dihydroquinazolin-2-yl)pyridin-2-yl)-N,N-dimethylbenzamide] | Active | Active | Active | Not Active | Active | 217 to 219 |
| COc1cc(OC)c2c(=O)[nH]c(-c3ccc(OCCO)c(-c4ccc(C(=O)N(C)C)cc4)n3)nc2c1 [Example 23, 4-(6-(5,7-Dimethoxy-4-oxo-3,4-dihydroquinazolin-2-yl)-3-(2-hydroxyethoxy)pyridin-2-yl)-N,N-dimethylbenzamide] | Active | Active | Active | Not Active | Active | – |
| COc1cc(OC)c2c(=O)[nH]c(-c3ccc(OCCO)c(-c4ccc(S(C)(=O)=O)cc4)n3)nc2c1 [Example 24, 2-(5-(2-Hydroxyethoxy)-6-(4-(methylsulfonyl)phenyl)pyridin-2-yl)-5,7-dimethoxyquinazolin-4(3H)-one] | Not Active | Active | Active | Not Active | Active | > 300 |
| COc1cc(OC)c2c(=O)[nH]c(-c3ccc(OCCO)c(-c4ccc(S(C)(=O)=O)cc4C)n3)nc2c1 [Example 39, 2-(5-(2-Hydroxyethoxy)-6-(2-methyl-4-(methylsulfonyl)phenyl)pyridin-2-yl)-5,7-dimethoxyquinazolin-4(3H)-one] | Active | Active | Active | Active | Active | – |
| CCS(=O)(=O)c1ccc(-c2nc(-c3nc4cc(OC)cc(OC)c4c(=O)[nH]3)ccc2OCCN2CCCC2)cc1 [Example 42, 2-(6-(4-(Ethylsulfonyl)phenyl)-5-(2-(pyrrolidin-1-yl)ethoxy)pyridin-2-yl)-5,7-dimethoxyquinazolin-4(3H)-one] | Active | Not Active | Active | Active | Active | – |
| CCS(=O)(=O)c1ccc(-c2nc(-c3nc4cc(OC)cc(OC)c4c(=O)[nH]3)ccc2OCCN2CCOCC2)cc1 [Example 43, 2-(6-(4-(Ethylsulfonyl)phenyl)-5-(2-morpholinoethoxy)pyridin-2-yl)-5,7-dimethoxyquinazolin-4(3H)-one] | Active | Active | Active | Active | Active | – |
| COc1cc(OC)c2c(=O)[nH]c(-c3ccc(OCCNC(C)C)c(-c4ccc(S(C)(=O)=O)cc4)c3)nc2c1 [Example 44, 2-(6-(2-(Isopropylamino)ethoxy)-4′-(methylsulfonyl)-[1,1′-biphenyl]-3-yl)-5,7-dimethoxyquinazolin-4(3H)-one] | Active | Active | Active | Active | Active | – |
